Values quoted from earlier work, collected in patent US11759493B2, “Composition for the treatment of constipation” (NEILOS S.R.L., priority 2017, dated 2023).

What was measured:
[1] = patients affected by constipation, meta-analysis
[2] = 20 and 40 g per day, both study groups
[3] = 10 g, versus placebo, healthy individuals

| percentage of people involved in the studies affected by diarrhea (20 g of active ingredient) | diarrhea (dosage of 10 g per day) | SMILES | evacuation frequency and feces consistency [1] | frequency, volume and weight of feces [2] | transit in the small intestine [3] |
| --- | --- | --- | --- | --- | --- |
| 5-20% | absence of diarrhea | OC[C@@H](O)[C@@H](O[C@@H]1O[C@H](CO)[C@H](O)[C@H](O)[C@H]1O)[C@H](O)[C@@H](O)CO [lactitol, 4-O-β-D-galactopyranosyl-D-glucitol] | increase the evacuation frequency and the feces consistency |  |  |
|  |  | OC[C@H]1O[C@@H](O[C@@H]2[C@@H](CO)OC(O)(CO)[C@H]2O)[C@H](O)[C@@H](O)[C@H]1O (mixture of isomers) [lactulose] |  | significant increase | accelerating effect |
